Reference: patent publication US20260258420A1, “COMPOSITIONS AND METHODS FOR THE TREATMENT OF HUMAN PAPILLOMAVIRUS-DRIVEN CANCERS” (priority 2023, published 2026)

What was measured:
Format in all cases: cell-based
[1] = test system: HPV-positive cancer cell lines (UMSCC47, CaSki, and MS751); assay: BrdU-TUNEL apoptosis assay, HPV-positive cell lines; conditions: 50 nmol/L barasertib or 200 nmol/L alisertib, 72 hours or 2 doubling times
Method: BrdU positive apoptotic cells were detected and quantified. The bar graph indicates the percentage of apoptotic cells with fragmented DNA in HPV-positive and HPV-negative cell lines. Values are the means±the standard deviations for 3 independent experiments. FIG. 2B and FIG. 2C show immunoblots of cleaved PARP (Cl. PARP) and cleaved caspase-3 (Cl. Caspase-3) levels in 3-HPV positive and 3 HPV-negative cell lines after barasertib or alisertib treatment for 2 doubling times (FIG. 2B) or 72 hours (FIG. 2C). […] UM47, UMSCC47; GAPDH, glyceraldehyde 3-phosphate dehydrogenase.
To measure apoptosis, TUNEL staining was performed with an APO-BRDU Kit (BD Biosciences, San Jose, CA) and annexin V/propidium iodide staining with an FITC Annexin V Apoptosis Detection Kit PE (eBioscience, San Diego, CA) as described previously (Kalu, et al., Cancer Lett 2018; 431:64-72). […] Data were acquired with a 3-laser, 10-color Gallios flow cytometer (Beckman Coulter, Brea, CA) and analyzed using Kaluza software, RRID:SCR_016182 (Beckman Coulter, Brea, CA). […] Briefly, after drug treatment, cells were incubated with Senescence Green Probe, a fluorescence-based reagent that contains 2 galactoside moieties that make it specific to […]. The enzyme-cleaved product is retained within the cell, and it emits a fluorogenic signal that was measured at 490/514 nm using a flow cytometer. […]

[2] = test system: 2 HPV-positive cell lines transfected with MAD2L1 plasmid; assay: Apoptosis with Mad2 overexpression; conditions: 100 nmol/L, 24 hours
Method: FIG. 6A, mRNA expressions of MAD2L1, BUBIB and TRIP13 in HNSCC HPV-positive (n=70) and HPV-negative (n=447) HNSCC patient tumors from the TCGA (left panel) and in HPV-positive (n=51) and HPV-negative OPSCC [(n=28), right panel]. FIG. 6B, FIG. 6C, TRIP13 was depleted by siRNA in HPV-positive and negative cell lines. Cells were then treated with 100 nmol/L alisertib for 36 hours before being subjected to lysis and immunoblotting with the indicated antibodies (FIG. 6B) or annexin-PE staining to measure apoptosis using flow cytometry (FIG. 6C). FIG. 6D, FIG. 6E, the MAD2L1 plasmid was transiently transfected into 2 HPV-positive cell lines that were then treated with 100 nmol/L alisertib for 24 hours before being subjected to lysis and immunoblotting for the indicated proteins (FIG. 6D) or annexin-PE staining to measure apoptosis (FIG. 6E). Values are the means±the standard deviations for 3 independent experiments (** P≤0.01). Cl, cleaved; Fl, full length; GAPDH, glyceraldehyde 3-phosphate dehydrogenase; Ox, overexpression. FIG. 6F, model of the synthetic lethality between TRIP13 and Aurora kinase A. HPV-positive, Rb deficient cancer cells rely on both TRIP13 and Aurora kinase activity to maintain mitotic fidelity, such that their combined inhibition will lead to a prolonged spindle assembly checkpoint (SAC), irreversible mitotic arrest, and cancer cell death. […]

[3] = test system: HPV-positive cell lines (CASKI and SIHA); assay: Apoptosis immunoblot after BUB1B or MAD2L1 siRNA; conditions: 300 nmol/L, 24 hours
Method: FIG. 5A, two HPV-positive cell lines (CASKI and SIHA) were transfected with BUB1B or MAD2L1 siRNA and then treated for 24 hours with 300 nmol/L alisertib before lysis and immunoblotting with the indicated antibodies. FIG. 5B, TRIP13 was transiently overexpressed (Ox) in 2 HPV-positive cell lines that were treated for 24 hours with 300 nmol/L alisertib before lysis and immunoblotting for the indicated proteins. FIG. 5C, HPV-positive cell lines with TRIP13 overexpression were treated with 300 nmol/L alisertib for 32 hours and then stained for annexin V-PE/7AAD staining and analysis with flow cytometry to measure apoptosis. The bar graph represents the ratio of apoptosis (late plus early) among different groups. Values are the means±the standard deviations for 3 independent experiments. ** P≤0.01; *** P≤0.001; unpaired, 2-tailed Student t-test. FIG. 5D, HN31 (left panel) and MDA886LN (right panel) cells expressing RB1 or control shRNA were transfected with a plasmid for TRIP13. After 24 hours, cells were treated with 300 nmol/L alisertib and then lysed for immunoblotting. Cl, cleaved; Fl, full length; GAPDH, glyceraldehyde 3-phosphate dehydrogenase. […]

With `COc1cc(Nc2ncc3c(n2)-c2ccc(Cl)cc2C(c2c(F)cccc2OC)=NC3)ccc1C(=O)O` [ALISERTIB, alisertib] the TUNEL-positive apoptotic nuclei [1] was “significantly increased”, the “apoptosis with Mad2 overexpression” value [2] was “enhanced apoptosis” and the “apoptosis with reduced levels of Mad2 or BUB1B” value [3] was “rescued the cells from alisertib-induced apoptosis”.
